Biological target: aryl hydrocarbon receptor (AhR) (Mus musculus (Mouse), UniProt P30561)
Experiment: AhR ligand screening: AhRE-luciferase reporter in transfected Hepa1 cells
Format: cell-based
Details: for Fold @ 1 nM: fold change of luciferase expression at 1 nM test compound relative to vehicle (0.1% DMSO); for Fold @ 100 nM: fold change of luciferase expression at 100 nM test compound relative to vehicle (0.1% DMSO); for Fold @ 10 uM: fold change of luciferase expression at 10 uM test compound relative to vehicle (0.1% DMSO); for Fold relative to benchmark @ 100 nM: luciferase expression at 100 nM test compound relative to 100 nM benchmark compound 11-cl-BBQ
Source text: The AhR is a ligand-activated transcription factor that dimerizes with ARNT to regulate gene expression, and genes that are regulated by AhR ligands have AhR response elements (AhRE) in their promotor regions.
Briefly, Hepa1 cells were transfected with a reporter construct consisting of AhRE linked to luciferase. The addition of AhR ligands to the transfected cells induces luciferase production that is directly proportional to the amount of AhR activation. We used this reporter system to identify novel compounds with AhR-activating properties. Transfected Hepa1 cells were plated at a density of 1×10^4 cells/well in 100 μL of cell culture media in 96 well plates and grown overnight. […] Following incubation with the compounds, the media was removed, and cells were harvested with lysis buffer. The lysates were transferred to opaque 96 well plates, where they were assayed well-by-well for luciferase activity by injection of luciferase assay substrate with a 2 sec mixing time and 15 sec integration period on a Tropix TR717 microplate luminometer. Data were expressed as fold induction of luciferase relative to vehicle (0.1% DMSO) treated cells.

aryl hydrocarbon receptor (AhR), sequence (P30561 10-805): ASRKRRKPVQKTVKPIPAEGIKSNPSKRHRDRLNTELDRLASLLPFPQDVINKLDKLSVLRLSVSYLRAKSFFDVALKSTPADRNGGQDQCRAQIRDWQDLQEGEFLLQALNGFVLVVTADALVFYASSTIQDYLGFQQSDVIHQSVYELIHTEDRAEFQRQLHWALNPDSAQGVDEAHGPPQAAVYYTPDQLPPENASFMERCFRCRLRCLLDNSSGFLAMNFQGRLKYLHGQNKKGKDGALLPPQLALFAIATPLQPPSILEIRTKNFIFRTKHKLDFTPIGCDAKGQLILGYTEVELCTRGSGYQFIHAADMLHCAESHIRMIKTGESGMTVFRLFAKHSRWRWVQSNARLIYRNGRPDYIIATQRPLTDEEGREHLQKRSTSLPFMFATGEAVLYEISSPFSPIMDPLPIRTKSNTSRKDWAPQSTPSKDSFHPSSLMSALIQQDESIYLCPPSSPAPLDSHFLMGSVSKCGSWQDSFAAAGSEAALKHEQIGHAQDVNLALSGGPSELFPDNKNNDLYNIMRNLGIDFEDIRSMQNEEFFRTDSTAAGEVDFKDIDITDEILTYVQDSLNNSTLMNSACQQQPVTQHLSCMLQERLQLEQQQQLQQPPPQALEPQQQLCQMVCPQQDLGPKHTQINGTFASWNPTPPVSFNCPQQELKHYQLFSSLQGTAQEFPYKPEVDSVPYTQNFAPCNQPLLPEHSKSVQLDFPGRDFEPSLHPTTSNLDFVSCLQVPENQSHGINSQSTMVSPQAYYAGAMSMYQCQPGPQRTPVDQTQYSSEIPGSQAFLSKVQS
aryl hydrocarbon receptor (AhR), sequence (P53762 whole entry partner): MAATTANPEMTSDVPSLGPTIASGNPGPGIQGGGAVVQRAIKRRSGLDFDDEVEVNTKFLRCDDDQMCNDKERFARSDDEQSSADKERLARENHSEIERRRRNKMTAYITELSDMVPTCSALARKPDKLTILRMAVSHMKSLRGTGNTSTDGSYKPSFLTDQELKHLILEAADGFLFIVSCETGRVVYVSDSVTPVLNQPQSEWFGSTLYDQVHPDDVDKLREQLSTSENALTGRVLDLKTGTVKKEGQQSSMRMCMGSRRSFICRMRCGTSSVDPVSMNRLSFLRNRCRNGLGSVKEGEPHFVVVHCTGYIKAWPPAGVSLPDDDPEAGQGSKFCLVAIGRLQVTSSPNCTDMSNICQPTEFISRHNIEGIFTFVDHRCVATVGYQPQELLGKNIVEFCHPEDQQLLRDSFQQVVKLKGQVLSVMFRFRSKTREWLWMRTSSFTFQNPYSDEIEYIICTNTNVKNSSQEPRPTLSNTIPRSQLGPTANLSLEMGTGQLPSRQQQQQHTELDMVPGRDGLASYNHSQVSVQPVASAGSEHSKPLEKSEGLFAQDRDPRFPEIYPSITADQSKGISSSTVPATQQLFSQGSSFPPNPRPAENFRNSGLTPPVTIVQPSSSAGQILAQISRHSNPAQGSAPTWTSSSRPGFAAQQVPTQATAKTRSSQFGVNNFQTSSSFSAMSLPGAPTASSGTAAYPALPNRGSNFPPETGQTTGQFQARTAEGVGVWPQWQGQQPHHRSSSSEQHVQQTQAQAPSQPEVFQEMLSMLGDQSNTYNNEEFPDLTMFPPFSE

Row | SMILES | Fold @ 1 nM [fold] | Fold @ 100 nM [fold] | Fold @ 10 uM [fold] | Fold relative to benchmark @ 100 nM [fold]
1 | Cc1ccc(S(=O)(=O)n2c(-c3cccc4ccccc34)nc3cc(F)ccc32)cc1 [Compound 631, 5-fluoro-2-(naphthalen-1-yl)-1-tosyl-1H-benzo[d]imidazole] | 1 | 1 | 7 | 0.11
2 | O=C(c1ccc2nc(-c3cccc4ccccc34)n(Cc3ccc(SC(F)(F)F)cc3)c2c1)N1CCCCC1 [Compound 1412] | 1 | 1 | 6 | 0.03
3 | COC(=O)c1ccc2nc(-c3cccc4ccccc34)n(S(=O)(=O)c3ccc4ccccc4c3)c2c1 [Compound 1384] | 1 | 2 | 13 | 0.07
4 | CC(C)(C)c1cccc(-c2nc3cc(Cl)ccc3n2C(=O)c2ccccc2)c1 [Compound 790] | 1 | 1 | 2 | 0.04
5 | O=C(c1ccccc1)n1c(-c2ccc(F)cc2)nc2ccc(Cl)cc21 [Compound 493] | 1 | 1 | 16 | 0.03
6 | COC(=O)c1ccc2nc(-c3cccc4ccccc34)n(S(=O)(=O)c3ccc(Cl)cc3)c2c1 [Compound 1386] | 1 | 2 | 6 | 0.07
7 | O=C1c2ccccc2-c2nc3cc(Cl)ccc3n21 [Compound 489, 5-chloro-1,8-diazatetracyclo-[7.7.0.0^2,70.^10,15]hexadeca-2,4,6,8,10,12,14-heptaen-16-one] | 1 | 1 | 5 | 0.03
8 | O=S(=O)(C1CC1)n1c(-c2cccc3ccccc23)nc2cc(Cl)ccc21 [Compound 783] | 1 | 1 | 24 | 0.03
9 | COC(=O)c1ccc2nc(-c3cccc4ccccc34)n(Cc3ccc(Cl)cc3)c2c1 [Compound 1407] | 1 | 1 | 9 | 0.03
10 | Clc1ccc2nc(-c3cccc4ccccc34)n(Cc3ccnc4ccccc34)c2c1 [Compound 868] | 1 | 2 | 28 | 0.07
11 | COc1ccc(C(=O)n2c(-c3cccc4ccccc34)nc3cc(C)ccc32)cc1 [Compound 702] | 1 | 1 |  | 0.04
12 | O=C(c1cccc2ccccc12)n1c(-c2ccccc2)nc2ccc(Cl)cc21 [Compound 491] | 1 | 1 | 24 | 0.03

The remaining lines, values ahead:

Row | Fold @ 1 nM [fold] | Fold @ 100 nM [fold] | Fold @ 10 uM [fold] | Fold relative to benchmark @ 100 nM [fold] | SMILES
13 | 1 | 10 | 73 | 0.34 | O=C(c1ccc(F)c(F)c1)n1c(-c2cc3ccccc3o2)nc2ccc(Cl)cc21 [Compound 858]
14 | 1 | 1.5 | 3.5 | 0.05 | COc1ccc(-c2nc3ccc(Cl)cc3n2C(=O)c2ccccc2)cc1 [Compound 497]
15 | 1 | 26 | 30 | 1 | Cc1ccc(C(=O)n2c(-c3cccc4ccccc34)nc3ccc(Cl)cc32)cc1 [Compound 698]
16 | 1 | 1 | 3 | 0.03 | O=C(c1ccc2nc(-c3cccc4ccccc34)n(S(=O)(=O)c3ccc(Cl)cc3)c2c1)N1CCCCC1 [Compound 1367]
17 | 1 | 1 | 1 | 0.03 | O=C(c1ccc2c(c1)nc(-c1cccc3ccccc13)n2Cc1ccc(F)c(F)c1)N1CCOCC1 [Compound 1329]
18 | 1 | 2 | 18 | 0.07 | COC(=O)c1ccc2[nH]c(-c3cccc4ccccc34)nc2c1 [Compound 1360]
19 | 1 | 24 | 31 | 0.92 | O=C(c1ccc(SC(F)(F)F)cc1)n1c(-c2cccc3ccccc23)nc2cc(Cl)ccc21 [Compound 686]
20 | 1 | 1 | 4 | 0.03 | CN1CCN(C(=O)c2ccc3c(c2)nc(-c2cccc4ccccc24)n3S(=O)(=O)c2cccc(F)c2)CC1 [Compound 1392]
21 | 1 | 3 | 8 | 0.12 | O=C(c1ccccc1)n1c(-c2cccc(C(F)(F)F)c2)nc2ccc(Cl)cc21 [Compound 789]
22 | 1 | 19 | 25 | 0.76 | CCc1ccc(S(=O)(=O)n2c(-c3cccc4ccccc34)nc3cc(Cl)ccc32)cc1 [Compound 775]
23 | 1 | 2 | 5 | 0.07 | COC(=O)c1ccc2c(c1)nc(-c1cccc3ccccc13)n2S(=O)(=O)c1ccc(Cl)cc1 [Compound 1385]
24 | 1 | 25 | 40 | 1 | O=C(C1CC1)n1c(-c2cccc3ccccc23)nc2cc(Cl)ccc21 [Compound 773]
